# Activity calls are given as the source filed them. The calls are words filed in the database; no cut-off is given here.
# How the values were obtained:
# [1] = Toxicity in C57BL/6 mouse allografted with mouse MCA-205 cells assessed as effect on body weight at 0.1 to 0.5 mg/kg, IT(Intratumoral); type: organism-based; conditions: in vivo, other, dose 0.1-0.5 mg/kg
# [2] = Metabolic stability in human liver microsomes assessed as half-life measured upto 6 hrs in presence of NADPH generating system by HPLC-MS/MS analysis; type: ADME, Microsome
# [3] = molecular target: T1, Histone deacetylase 8 (Homo sapiens) (UniProt Q9BY41); assay: Inhibition of HDAC8 in human HT-29 cells assessed as increase in SMC3 acetylation at 0.5 to 100 nM measured after 30 mins by western blot analysis; type: cell-based; conditions: dose 0.5-100 nM
# T1 sequence (whole entry): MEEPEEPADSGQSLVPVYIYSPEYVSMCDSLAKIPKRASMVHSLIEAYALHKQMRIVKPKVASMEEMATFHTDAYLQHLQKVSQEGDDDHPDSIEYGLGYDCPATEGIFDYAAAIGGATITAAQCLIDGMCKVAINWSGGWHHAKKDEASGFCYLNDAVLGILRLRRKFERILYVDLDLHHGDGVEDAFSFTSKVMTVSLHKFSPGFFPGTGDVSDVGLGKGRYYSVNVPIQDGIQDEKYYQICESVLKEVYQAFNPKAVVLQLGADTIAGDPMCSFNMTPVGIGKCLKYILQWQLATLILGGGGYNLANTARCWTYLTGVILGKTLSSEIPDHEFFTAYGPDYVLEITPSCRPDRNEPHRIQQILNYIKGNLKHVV
# Histone deacetylase 11 = molecular target: T2, Histone deacetylase 11 (Homo sapiens, UniProt Q96DB2); assay: Inhibition of HDAC11 (unknown origin) measured by fluorometry assay
# T2 sequence (Q96DB2 whole entry): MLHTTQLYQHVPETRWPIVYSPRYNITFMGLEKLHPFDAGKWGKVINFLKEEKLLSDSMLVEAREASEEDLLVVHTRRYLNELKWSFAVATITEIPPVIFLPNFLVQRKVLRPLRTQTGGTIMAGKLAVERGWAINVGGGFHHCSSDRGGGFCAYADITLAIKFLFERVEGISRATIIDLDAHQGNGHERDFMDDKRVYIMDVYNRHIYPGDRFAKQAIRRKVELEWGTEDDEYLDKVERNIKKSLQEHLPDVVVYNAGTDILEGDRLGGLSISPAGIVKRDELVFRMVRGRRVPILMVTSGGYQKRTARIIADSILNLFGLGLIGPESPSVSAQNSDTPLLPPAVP
# Tubulin = assay: Inhibition of tubulin polymerization in human HeLa cells assessed as microtubule network polymerization after 30 mins by immunofluorescence analysis; type: cell-based
# HT-29 = assay: Induction of DNA damage in human HT-29 cells at 0.5 to 10 nM assessed as increase in gamma-H2AX level and measured after 24 hrs by Western blot analysis; type: functional, cell-based; conditions: dose 0.5-10 nM
# MDA-MB-231 = assay: Antiproliferative activity against human MDA-MB-231 cells after 72 hrs by CellTiter Glo assay; type: functional, cell-based; conditions: MDA-MB-231, 72 h
# [4] = Solubility of compound in water; type: physicochemical
# [5] = molecular target: T3, Protein deacetylase HDAC6 (Homo sapiens, UniProt Q9UBN7); assay: Inhibition of HDAC6 (unknown origin) measured by fluorometry assay
# T3 sequence (Q9UBN7 whole entry): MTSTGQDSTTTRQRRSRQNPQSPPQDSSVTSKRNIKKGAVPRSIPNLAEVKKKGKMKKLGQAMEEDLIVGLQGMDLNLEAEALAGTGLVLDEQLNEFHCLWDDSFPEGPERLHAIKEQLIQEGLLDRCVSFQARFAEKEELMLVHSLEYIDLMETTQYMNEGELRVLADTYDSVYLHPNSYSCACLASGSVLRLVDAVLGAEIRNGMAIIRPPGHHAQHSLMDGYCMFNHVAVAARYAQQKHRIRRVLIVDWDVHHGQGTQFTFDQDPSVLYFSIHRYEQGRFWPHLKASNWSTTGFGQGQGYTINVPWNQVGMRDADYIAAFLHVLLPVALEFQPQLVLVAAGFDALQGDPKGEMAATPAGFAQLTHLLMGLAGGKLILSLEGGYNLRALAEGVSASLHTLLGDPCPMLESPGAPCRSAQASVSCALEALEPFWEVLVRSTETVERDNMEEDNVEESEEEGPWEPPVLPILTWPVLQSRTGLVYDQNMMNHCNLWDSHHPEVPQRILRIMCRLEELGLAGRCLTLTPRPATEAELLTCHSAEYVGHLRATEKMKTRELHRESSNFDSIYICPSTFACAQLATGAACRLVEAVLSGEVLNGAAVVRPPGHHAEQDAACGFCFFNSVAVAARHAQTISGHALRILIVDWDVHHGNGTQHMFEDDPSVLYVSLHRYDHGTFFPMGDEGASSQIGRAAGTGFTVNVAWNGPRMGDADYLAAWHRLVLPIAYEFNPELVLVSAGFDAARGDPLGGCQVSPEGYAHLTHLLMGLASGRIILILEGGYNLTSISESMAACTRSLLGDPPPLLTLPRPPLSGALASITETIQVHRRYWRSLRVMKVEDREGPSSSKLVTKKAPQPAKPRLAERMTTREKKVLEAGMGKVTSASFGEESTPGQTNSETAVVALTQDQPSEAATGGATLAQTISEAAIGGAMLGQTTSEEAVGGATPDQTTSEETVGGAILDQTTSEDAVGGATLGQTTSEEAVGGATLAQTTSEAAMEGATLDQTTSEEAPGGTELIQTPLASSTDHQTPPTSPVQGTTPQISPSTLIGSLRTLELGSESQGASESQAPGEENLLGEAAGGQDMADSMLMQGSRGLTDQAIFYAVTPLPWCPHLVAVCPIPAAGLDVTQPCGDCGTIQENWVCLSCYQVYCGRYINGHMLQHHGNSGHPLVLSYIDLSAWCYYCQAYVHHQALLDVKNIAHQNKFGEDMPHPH
# MCA-205 = assay: Antitumor activity against mouse MCA-205 cells allografted in female C57BL/6 mouse assessed as complete tumor regression at 0.5 mg/kg, IT(Intratumoral); type: functional, organism-based
# [6] = Metabolic stability in human liver microsomes assessed as intrinsic clearance per mg protein measured upto 6 hrs in presence of NADPH generating system by HPLC-MS/MS analysis; type: ADME, Microsome; conditions: read-out: CLH
# K562 = assay: Antiproliferative activity against human K562 cells after 72 hrs by CellTiter Glo assay; type: functional, cell-based; conditions: K562, 72 h
structure (smiles),measurement,setting,value
COc1ccc(N(C)c2cc(C#N)nc3ccccc23)cc1/C=C/C(=O)NO,Activity,[1],Non-Toxic
same,half-life,[2],32 h
same,inhibition,[3],Active
same,IC50,Histone deacetylase 11,1900 nM
same,IC50,Tubulin,20 nM
same,Activity,HT-29,Active
same,IC50,MDA-MB-231,0.7 nM
same,solubility,[4],68.7 µg/mL
same,IC50,[5],1000 nM
same,Activity,MCA-205,Active
same,microsomal CLint,[6],0.36 µL/min/mg
same,IC50,K562,0.35 nM

# From ChEMBL document CHEMBL5113481, “Design, synthesis and biological evaluation of quinoline-2-carbonitrile-based hydroxamic acids as dual tubulin polymerization and histone deacetylases inhibitors” (Eur J Med Chem, 2022)
